# From patent publication US9353082B2, “Pharmaceutical compounds” (BIAL—PORTELA & CA, S.A., priority 2008, dated 2016)
# What was measured:
# FAAH [1] = target: T1, FAAH (Mus musculus, UniProt O08914); assay: In vivo FAAH inhibition after oral dosing, remaining activity in brain homogenate (BRh, central nervous tissue); set-up: species or system NMRI mice; conditions: brain homogenate, low value = strong inhibitor; for In Vivo BRh 3 mg·kg 8 h (remaining FAAH activity, % of control): 8 h after dosing
# T1 construct: A fragment of liver, left lung lobe and brain without cerebellum were removed; from tissue; host or cells: male NMRI mice; brain (without cerebellum) and liver homogenates
# T1 sequence (O08914 1-579): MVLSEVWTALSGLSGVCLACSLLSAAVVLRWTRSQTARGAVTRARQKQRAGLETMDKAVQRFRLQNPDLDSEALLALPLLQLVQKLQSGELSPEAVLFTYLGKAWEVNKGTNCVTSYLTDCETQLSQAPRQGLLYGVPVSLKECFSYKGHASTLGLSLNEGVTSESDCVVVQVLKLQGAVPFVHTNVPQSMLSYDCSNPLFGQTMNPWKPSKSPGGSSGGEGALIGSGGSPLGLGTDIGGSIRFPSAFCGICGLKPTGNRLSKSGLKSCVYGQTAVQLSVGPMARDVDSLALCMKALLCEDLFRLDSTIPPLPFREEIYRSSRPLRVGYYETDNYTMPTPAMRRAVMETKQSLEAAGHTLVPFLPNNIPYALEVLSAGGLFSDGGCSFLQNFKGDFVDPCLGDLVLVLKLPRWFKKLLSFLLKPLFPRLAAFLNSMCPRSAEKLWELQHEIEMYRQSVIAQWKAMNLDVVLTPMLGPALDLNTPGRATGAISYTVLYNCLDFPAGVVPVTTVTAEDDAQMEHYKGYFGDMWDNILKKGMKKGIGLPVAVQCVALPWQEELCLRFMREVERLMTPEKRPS
# Protocol: (§1) The in vivo test was performed according to the protocol described below. BRh indicates inhibition in central nervous tissue and LVh indicates inhibition in peripheral tissue, in this case liver.
# (§2) The animals used for experiments were male NMRI mice (weighing 27-44 g) obtained from Interfauna Ibérica (Spain). Mice were kept 5 per cage, under controlled environmental conditions (12 hr light/dark cycle and room temperature 22±1° C.). Food and tap water were allowed ad libitum and the experiments were all carried out during daylight hours.
# (§3) Animals were administered 30 mg/kg or 3 mg/kg compounds of the invention via oral route (8 ml/kg; compound suspended in 0.5% carboxymethylcellulose (CMC) or solubilized in water) or vehicle (controls) using animal feeding stainless steel curve needles (Perfectum, U.S.A.). Fifteen minutes before sacrifice animal were anesthetized with pentobarbital 60 mg/kg administered intraperitoneally. A fragment of liver, left lung lobe and brain without cerebellum were removed and put in plastic vials containing membrane buffer (3 mM MgCl2, 1 mM EDTA, 50 mM Tris HCl pH 7.4). Tissues were stored at −30° C. until analysis.
# (§4) Animals were always fasted overnight before administration of compounds except for time points of >18 h, where food was removed on the morning of day of administration and the compound was administered in the afternoon of the same day. Animals were then given water but nothing else.
# (§5) Tissues were thawed on ice and were homogenized in 10 volumes of membrane buffer (3 mM MgCl2, 1 mM EDTA, 50 mM Tris HCl pH 7.4) with either Potter-Elvejhem (brains—8 strokes at 500 rpm) or Heidolph Diax (livers—2 strokes at position 5 for 20 sec with 30 sec pauses).
# (§6) Total protein in tissues was determined with the BioRad Protein Assay (BioRad) using a standard curve of BSA (50-250 μg/ml).
# (§7) Reaction mix (total volume of 200 μl) contained: […] (2 μM AEA+5 nM ^3H-AEA), 0.1% fatty acid free BSA, 15 μg (brain), 5 μg (liver) or 50 μg (lung) protein, in 1 mM EDTA, 10 mM Tris pH 7.6. After a […] pre-incubation period at 37° C., reaction was started by the addition of the substrate solution (cold AEA+radiolabelled AEA+BSA). Reaction was carried out for 10 min (brain and lung) or […] (liver) before termination by the addition of 400 μl activated charcoal suspension (8 g charcoal in 32 ml 0.5 M HCl in continuous agitation). After a […] incubation period at room temperature with agitation, charcoal was sedimented by centrifugation in microfuge (10 min at 13000 rpm). 200 μl of the supernatant were added to 800 μl Optiphase Supermix scintillation cocktail previously distributed in 24-well plates. Counts per minute (cpm) were determined in a MicrobetaTriLux scintillation counter.
# (§8) In each assay blanks (without protein) were prepared.
# (§9) The percentage of remaining enzymatic activity was calculated in respect to controls and after blank subtraction.
# FAAH [2] = target: T1, FAAH; assay: In vivo FAAH inhibition after oral dosing, remaining activity in liver homogenate (LVh, peripheral tissue); set-up: species or system NMRI mice; conditions: liver homogenate, low value = strong inhibitor; for In Vivo LVh 3 mg·kg 8 h (remaining FAAH activity, % of control): 8 h after dosing
# Protocol: as §1, §2, §3, §4, §5, §6, §7, §8, §9
Compound,"In Vivo BRh 3 mg · kg · 8 h (remaining FAAH activity) (FAAH [1]; 3 mg/kg oral, 8 h)","In Vivo LVh 3 mg · kg · 8 h (remaining FAAH activity) (FAAH [2]; 3 mg/kg oral, 8 h)","In Vivo BRh 3 mg·kg 8 h (remaining FAAH activity, % of control) (FAAH [1])","In Vivo LVh 3 mg·kg 8 h (remaining FAAH activity, % of control) (FAAH [2])"
"CN(C(=O)n1cnc(-c2cccc(C(=O)NO)c2)c1)[C@H]1CC[C@H](O)CC1 [Compound 566, 4-(3-(hydroxycarbamoyl)phenyl)-N-((1r,4r)-4-hydroxycyclohexyl)-N-methyl-1H-imidazole-1-carboxamide]",88.5 % of control,69.8 % of control,,
"COc1ccc(-c2cn(C(=O)N3COCC3(C)C)cn2)cc1N [Compound no. 356, (4-(3-amino-4-methoxyphenyl)-1H-imidazol-1-yl)(4,4-dimethyloxazolidin-3-yl)methanone]",,,6.5 % of control,9.4 % of control
"CC1(C)COCN1C(=O)n1cnc(-c2ccc(O)c(N)c2)c1.Cl [Compound no. 358, (4-(3-amino-4-hydroxyphenyl)-1H-imidazol-1-yl)(4,4-dimethyloxazolidin-3-yl)methanone hydrochloride]",,,117.1 % of control,81.2 % of control
"CC1(C)COCN1C(=O)n1nnc2cccnc21 [Compound no. 368, (3H-[1,2,3]triazolo[4,5-b]pyridin-3-yl)(4,4-dimethyloxazolidin-3-yl)methanone]",,,4.9 % of control,9.6 % of control
"CN(C(=O)n1cnc(-c2ccc(S(N)(=O)=O)cc2)c1)C1CCCCC1 [Compound no. 376, N-cyclohexyl-N-methyl-4-(4-sulfamoylphenyl)-1H-imidazole-1-carboxamide]",,,95.3 % of control,5.7 % of control
"CN(C(=O)n1cnc(-c2ccc(-c3nn[nH]n3)cc2)c1)C1CCCCC1 [Compound no. 380, 4-(4-(2H-tetrazol-5-yl)phenyl)-N-cyclohexyl-N-methyl-1H-imidazole-1-carboxamide]",,,77.3 % of control,51.3 % of control
"CN(C(=O)n1cnc(-c2ccc(/C(N)=N/O)cc2)c1)C1CCCCC1 [Compound no. 406, (Z)—N-cyclohexyl-4-(4-(N′-hydroxycarbamimidoyl)phenyl)-N-methyl-1H-imidazole-1-carboxamide]",,,66.8 % of control,16.3 % of control
"CN(C(=O)n1cnc(-c2ccc(S(=O)(=O)N3CCC(OCc4ccccc4)CC3)cc2)c1)C1CCCCC1 [Compound no. 415, 4-(4-(4-(benzyloxy)piperidin-1-ylsulfonyl)phenyl)-N-cyclohexyl-N-methyl-1H-imidazole-1-carboxamide]",,,109.1 % of control,95.4 % of control
"COc1ccc(-c2cn(C(=O)N(C)C3CCN(Cc4ccccc4)CC3)cn2)cc1 [Compound no. 419, N-(1-benzylpiperidin-4-yl)-4-(4-methoxyphenyl)-N-methyl-1H-imidazole-1-carboxamide]",,,0.8 % of control,1 % of control
"CN(C(=O)n1cnc(-c2ccc(S(C)(=O)=O)cc2)c1)C1CCCCC1 [Compound no. 422, N-cyclohexyl-N-methyl-4-(4-(methylsulfonyl)phenyl)-1H-imidazole-1-carboxamide]",,,1.7 % of control,2.7 % of control
"CN(C(=O)n1cnc(-c2cccc(C(=O)NO)c2)c1)C1CCN(Cc2ccccc2)CC1 [Compound no. 423, N-(1-benzylpiperidin-4-yl)-4-(3-(hydroxycarbamoyl)phenyl)-N-methyl-1H-imidazole-1-carboxamide]",,,90 % of control,2.1 % of control
"CN(C(=O)n1cnc(-c2cccc(C(=O)NO)c2)c1)C1CCCCC1 [Compound no. 424, N-cyclohexyl-4-(3-(hydroxycarbamoyl)phenyl)-N-methyl-1H-imidazole-1-carboxamide]",,,1 % of control,0.5 % of control
"CN(C(=O)n1cnc(-c2ccc(NCc3ccccc3)c([N+](=O)[O-])c2)c1)C1CCCCC1 [Compound no. 425, 4-(4-(benzylamino)-3-nitrophenyl)-N-cyclohexyl-N-methyl-1H-imidazole-1-carboxamide]",,,111.4 % of control,104.6 % of control
"CN(C(=O)n1cnc(-c2ccc3c(c2)[nH]c(=O)n3Cc2ccccc2)c1)C1CCCCC1 [Compound no. 426, 4-(1-benzyl-2-oxo-2,3-dihydro-1H-benzo[d]imidazol-5-yl)-N-cyclohexyl-N-methyl-1H-imidazole-1-carboxamide]",,,96.9 % of control,115.8 % of control
"CN(C(=O)n1cnc(-c2ccc(S(=O)(=O)N3CCC(O)CC3)cc2)c1)C1CCCCC1 [Compound no. 432, N-cyclohexyl-4-(4-(4-hydroxypiperidin-1-ylsulfonyl)phenyl)-N-methyl-1H-imidazole-1-carboxamide]",,,96.1 % of control,65.5 % of control
"CN(C)c1ccc(-c2cn(C(=O)N(C)C3CCCCC3)cn2)cc1[N+](=O)[O-] [Compound no. 435, N-cyclohexyl-4-(4-(dimethylamino)-3-nitrophenyl)-N-methyl-1H-imidazole-1-carboxamide]",,,4.3 % of control,4.9 % of control
"COc1ccc(-c2cn(C(=O)N(C)C3CCCCC3)cn2)cc1-c1nn[nH]n1 [Compound no. 438, N-cyclohexyl-4-(4-methoxy-3-(2H-tetrazol-5-yl)phenyl)-N-methyl-1H-imidazole-1-carboxamide]",,,92.4 % of control,6.1 % of control
"CN(C(=O)n1cnc(-c2ccc(O)c(-c3nn[nH]n3)c2)c1)C1CCCCC1 [Compound no. 439, N-cyclohexyl-4-(4-hydroxy-3-(2H-tetrazol-5-yl)phenyl)-N-methyl-1H-imidazole-1-carboxamide]",,,94.4 % of control,58.6 % of control
"CC1(C)COCN1C(=O)n1nnc2cc(C(=O)NO)ccc21 [Compound no. 440, 1-(4,4-dimethyloxazolidine-3-carbonyl)-N-hydroxy-1H-benzo[d][1,2,3]triazole-5-carboxamide]",,,23.2 % of control,3.3 % of control
